Data published in US8722683B2, “Benzodioxole piperazine compounds” (Hoffmann LA-Roche Inc., priority 2011, dated 2014).

Key:
D2 receptor = D2 receptor (Homo sapiens (Human), UniProt P14416); experiment: Radioligand binding ([3H]-spiperone) to cloned D2 receptor expressed in HEK-293 EBNA cells; conditions: HEK293 EBNA membranes, 0.7 nM [3H]-spiperone
Procedure: (§1) HEK293 EBNA cells were transiently transfected with expression plasmids encoding for the human D2 or D3 or for the human 5-HT2A receptor, respectively. The cells were harvested 48 h post-transfection, washed three times with cold PBS and stored at −80° C. prior to use. The pellet was suspended in cold 50 mM Tris-HCl buffer containing 10 mM EDTA (pH 7.4) and was homogenized with a Polytron (Kinematica AG, Basel, Switzerland) for 20-30 sec at 12.000 rpm. After centrifugation at 48.000×g for 30 min at 4° C., the pellet was resuspended in cold 10 mM Tris-HCl buffer containing 0.1 mM EDTA (pH 7.4), homogenized, and centrifuged as above. This pellet was further resuspended in a smaller volume of ice cold 10 mM Tris-HCl buffer containing 0.1 mM EDTA (pH 7.4) and homogenized with a Polytron for 20-30 sec at 12.000 rpm. The protein content of this homogenate was determined with the Bio-Rad (Bradford) Protein Assay (Biorad Laboratories GmbH, München, Germany) according to the instructions of the manufacturer using gamma globulin as the standard. This homogenate was stored at −80° C. in aliquots and thawed immediately prior to use.
(§2) Radioligand Binding Assay
(§3) Aliquots of membrane preparations were thawed at RT, resupended in assay buffer (D2, D3: 50 mM Tris-HCl, 120 mM NaCl, 5 mM MgCl2, 1 mM EDTA, 5 mM KCl, 1.5 mM CaCl2, pH=7.4; 5-HT2A: 50 mM Tris-HCl, 10 mM MgCl2, 1 mM EGTA, pH=7.4), homogenized with a Polytron for 20-30 sec at 12.000 rpm and adjusted to a final concentration of approximately 7.5 μg protein/well (D2, D3) and 15 μg protein/well (5-HT2A), respectively.
The binding affinity (Ki) of the compounds was determined using radioligand binding. […] The nonspecific binding was determined with equally composed reaction mixtures in the presence of 10 μM unlabelled spiperone. Per well 45 μl of Microscint 40 (Perkin Elmer, Schwerzenbach, Switzerland) was added, plates for sealed, shaken for 20 min and counted for 3 min on a Topcount Microplate Scintillation Counter (Canberra Packard SA, Zürich, Switzerland) with quenching correction.
(§4) The CPM value for each duplicate of a concentration of competing compound was averaged (y1), then the % specific binding was calculated according to the equation (((y1−non-specific)/(total binding−non-specific))×100). Graphs were plotted with the % specific binding using XLfit, a curve fitting program that iteratively plots the data using Levenberg-Marquardt algorithm. The single site competition analysis equation used was y=A+((B−A)/(1+((x/C)D))), where y is the % specific binding, A is the minimum y, B is the maximum y, C is the IC50, x is the log 10 of the concentration of the competing compound and D is the slope of the curve (the Hill Coefficient). […] The affinity constant (Ki) was calculated using the Cheng-Prusoff equation Ki=(IC50/1+([L]/Kd), where [L] is the concentration of radioligand and Kd is the dissociation constant of the radioligand at the receptor as determined by the saturation isotherm.

D3 receptor = D3 receptor (Homo sapiens (Human), UniProt P35462); experiment: Radioligand binding ([3H]-spiperone) to cloned D3 receptor expressed in HEK-293 EBNA cells; conditions: HEK293 EBNA membranes, 0.5 nM [3H]-spiperone
Sequence of D3 receptor (P35462 whole entry): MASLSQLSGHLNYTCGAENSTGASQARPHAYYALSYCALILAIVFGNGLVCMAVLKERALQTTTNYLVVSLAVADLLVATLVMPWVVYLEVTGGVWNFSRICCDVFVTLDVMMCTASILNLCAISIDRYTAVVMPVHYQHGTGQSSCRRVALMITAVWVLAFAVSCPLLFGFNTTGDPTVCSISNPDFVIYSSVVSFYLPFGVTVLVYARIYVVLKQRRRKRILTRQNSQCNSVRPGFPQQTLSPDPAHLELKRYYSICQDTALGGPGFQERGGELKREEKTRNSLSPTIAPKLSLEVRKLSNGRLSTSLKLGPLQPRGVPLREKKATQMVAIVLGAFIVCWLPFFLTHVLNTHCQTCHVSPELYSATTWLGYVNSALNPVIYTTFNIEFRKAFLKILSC
Procedure: as §1, §2, §3
The binding affinity (Ki) of the compounds was determined using radioligand binding. […] At the end of the incubation, the reaction mixtures were filtered on to unifilter 96-well white microplates with bonded GF/C filters (Packard BioScience, Zürich, Switzerland; preincubated for 1 h in 0.1% polyethylenimine (PEI) in assay buffer) with a Filtermate 196 harvester (Packard BioScience) and washed 3 times with cold assay buffer. The nonspecific binding was determined with equally composed reaction mixtures in the presence of 10 μM unlabelled spiperone. Per well 45 μl of Microscint 40 (Perkin Elmer, Schwerzenbach, Switzerland) was added, plates for sealed, shaken for 20 min and counted for 3 min on a Topcount Microplate Scintillation Counter (Canberra Packard SA, Zürich, Switzerland) with quenching correction.
as §4

Sequence of D2 receptor (P14416 whole entry): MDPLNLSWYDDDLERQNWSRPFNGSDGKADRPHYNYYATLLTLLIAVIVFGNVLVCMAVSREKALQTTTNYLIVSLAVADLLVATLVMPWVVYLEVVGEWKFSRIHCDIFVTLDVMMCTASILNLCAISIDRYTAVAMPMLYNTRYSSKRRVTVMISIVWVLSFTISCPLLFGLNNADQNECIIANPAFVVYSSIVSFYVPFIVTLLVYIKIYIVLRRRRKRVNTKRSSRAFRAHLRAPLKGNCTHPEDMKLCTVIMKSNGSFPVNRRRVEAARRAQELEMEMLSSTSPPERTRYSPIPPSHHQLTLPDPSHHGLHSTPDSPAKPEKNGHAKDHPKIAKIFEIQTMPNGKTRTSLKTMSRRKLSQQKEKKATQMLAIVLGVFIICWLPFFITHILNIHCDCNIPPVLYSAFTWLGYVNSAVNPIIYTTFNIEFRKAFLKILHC

| Ki (D2 receptor) [nM] | Ki (D3 receptor) [nM] | Compound |
| --- | --- | --- |
| 146 | 4.98 | [2H]C1([2H])Oc2cccc(N3CCN(CC[C@H]4CC[C@H](NC(=O)COC)CC4)CC3)c2O1 [Example 79, N-trans-{4-[2-(4-Benzo(2,2-D2) [1,3]dioxol-4-yl-piperazin-1-yl)-ethyl]-cyclohexyl}-2-methoxy-acetamide] |
| 91.2 | 1.57 | O=C(CC(F)(F)F)N[C@H]1CC[C@H](CCN2CCN(c3cccc4c3OCO4)CC2)CC1 [Example 16, Trans-N-{4-[2-(4-Benzo[1,3]dioxol-4-yl-piperazin-1-yl)-ethyl]-cyclohexyl}-3,3,3-trifluoro-propionamide] |
| 117 | 2.44 | O=C(C[C@H]1C[C@H](CO)C1)N[C@H]1CC[C@H](CCN2CCN(c3cccc4c3OCO4)CC2)CC1 [Example 74, N-trans-{4-[2-(4-Benzo[1,3]dioxol-4-yl-piperazin-1-yl)-ethyl]-cyclohexyl}-2-(3-hydroxymethyl-cyclobutyl)-acetamide] |
| 251 | 12.5 | COC1(C(=O)N[C@H]2CC[C@H](CCN3CCN(c4cccc5c4OCO5)CC3)CC2)CCCCC1 [Example 41, 1-Methoxy-cyclohexanecarboxylic acid-Trans-N-{4-[2-(4-benzo[1,3]dioxol-4-yl-piperazin-1-yl)-ethyl]-cyclohexyl}-amide] |
| 189 | 3.1 | O=C(CC1CCCO1)N[C@H]1CC[C@H](CCN2CCN(c3cccc4c3OCO4)CC2)CC1 (stereo partly drawn) [Example 6, Trans-N-{4-[2-(4-Benzo[1,3]dioxol-4-yl-piperazin-1-yl)-ethyl]-cyclohexyl}-2-(tetrahydro-furan-2-yl)-acetamide] |
| 158 | 1.04 | O=C(Nc1ccc(Cl)cc1)N[C@H]1CC[C@H](CCN2CCN(c3cccc4c3OCO4)CC2)CC1 [Example 75, N-trans-1-{4-[2-(4-Benzo[1,3]dioxol-4-yl-piperazin-1-yl)-ethyl]-cyclohexyl}-3-(4-chloro-phenyl)-urea] |
| 88.2 | 1.79 | O=C(N[C@H]1CC[C@H](CCN2CCN(c3cccc4c3OCO4)CC2)CC1)c1cccnc1 [Example 48, Trans-N-{4-[2-(4-Benzo[1,3]dioxol-4-yl-piperazin-1-yl)-ethyl]-cyclohexyl}-nicotinamide] |
| 241 | 2.01 | O=C(N[C@H]1CC[C@H](CCN2CCN(c3cccc4c3OCO4)CC2)CC1)N1CCc2ccccc21 [Example 71, 2,3-Dihydro-indole-1-carboxylic acid-trans-N-{4-[2-(4-benzo[1,3]dioxol-4-yl-piperazin-1-yl)-ethyl]-cyclohexyl}-amide] |
| 238 | 4.37 | COCC(=O)N[C@H]1CC[C@H](CCN2CCN(c3cccc4c3OCO4)CC2)CC1 [Example 9, Trans-N-{4-[2-(4-Benzo[1,3]dioxol-4-yl-piperazin-1-yl)-ethyl]-cyclohexyl}-2-methoxy-acetamide] |
| 133 | 2.28 | CC(C)CC(=O)N[C@H]1CC[C@H](CCN2CCN(c3cccc4c3OCO4)CC2)CC1 [Example 18, Trans-N-{4-[2-(4-Benzo[1,3]dioxol-4-yl-piperazin-1-yl)-ethyl]-cyclohexyl}-3-methyl-butyramide] |
| 150 | 4.9 | COC(C)C(=O)N[C@H]1CC[C@H](CCN2CCN(c3cccc4c3OCO4)CC2)CC1 (stereo in doubt) [Example 26, Trans(R)—N-{4-[2-(4-Benzo[1,3]dioxol-4-yl-piperazin-1-yl)-ethyl]-cyclohexyl}-2-methoxy-propionamide] |
| 250 | 21.4 | COC(C)C(=O)N[C@H]1CC[C@H](CCN2CCN(c3cccc4c3OCO4)CC2)CC1 (stereo in doubt) [Example 25, Trans(S)—N-{4-[2-(4-Benzo[1,3]dioxol-4-yl-piperazin-1-yl)-ethyl]-cyclohexyl}-2-methoxy-propionamide] |
